Assay results published in US6500613B1, “Pneumococcal surface proteins and uses thereof” (priority 1995, dated 2002).
Where two headings read alike, the source gives them in different places.

Experiments:
pspA = experiment: Amplification of pspA by PCR with oligonucleotides as 5' primers and 3' primer LSM2 (Example 11); parameters: species or system Streptococcus pneumoniae; settings: 5′ primer in combination with 3′-primer LSM2, 14 strains
Description: These oligonucleotides were synthesized by Oligos, Etc.
PCR was done with an MJ Research, Inc., Programmable Thermal Cycler (Watertown, Mass.), using approximately 10 ng of genomic pneumococcal DNA as template with designated 5′ and 3′ primer pairs. The sample was brought to a total volume of 50 μl containing a final concentration of 50 mM KCl, 10 mM Tris-HCl (pH 8.3), 1.5 mM MgCl2, 0.01% gelatin, 0.5 μM of each primer, 200 μM of each deoxynucleoside triphosphate, and 2.5 U of Taq DNA polymerase. The samples were denatured at 94° C. for 2 minutes and subjected to 10 cycles consisting of: 1 min at 94° C., 2 min at 50° C., and 3 min at 72° C., followed by 20 cycles of: 1 min at 94° C., 2 min at 60° C., and 3 min at 72° C. After 30 total cycles, the samples were held at 72° C. for an additional 5 min prior to cooling to 4° C. The amplicons were then analyzed by agarose gel electrophoresis.

[1] = test system: S. pneumoniae isolates MC25, MC26, MC27, MC28; format: cell-based, Streptococcus pneumoniae

## LSM111 (DNA CCGGATCCAGCTCCTGCACCAAAAC; chemistry not given here)
pspA
  Amplified/Tested: 14/14
  Percent Amplified: 100%

## Penicillin
[1]; isolate MC25
  Penicillin MIC: 1 µg/mL
[1]; isolate MC26
  Penicillin MIC: 4 µg/mL
[1]; isolate MC27
  Penicillin MIC: 1 µg/mL
[1]; isolate MC28
  Penicillin MIC: 2 µg/mL
